Columns and labels:
fibrin clot [1] = assay: Synergistic effects in combination with tissue plasminogen activator (TPA), added before or after clot formation; design: species or system human; details: with melanoma-derived TPA, compared with no activator, FIGS. 4 and 5
Description: (§1) Healthy human blood to which sodium citrate had been added, was subjected to centrifugal separation to prepare platelet-rich plasma. A trace amount of ^125 I-labeled fibrinogen was added to and mixed with the platelet-rich plasma. 250 mM solutions of calcium chloride which contained the peptide (Ia) at different levels (0-5 mM) and 1 u/ml of a melanoma-derived tissue plasminogen activator (TPA), were poured 20 μl by 20 μl into glass test tubes, each of which was then added with 180 μl of the above plasma. A fibrin clot was formed in several minutes. Clot retraction started about 15 minutes later and was completed in about 30 minutes.
Thereafter, each test tube was added with 800 μl of platelet-poor plasma which contained the peptide (Ia) at different levels (0-500 μM) and 1 u of Hirudin. The test tube was then incubated at 37° C. The contents were sampled periodically to measure ^125 I released into the supernatant.
Healthy human blood to which sodium citrate had been added, was subjected to centrifugal separation to prepare platelet-rich plasma. A trace amount of ^125 I-labeled fibrinogen was added to and mixed with the platelet-rich plasma. 250 mM solutions of calcium chloride were poured 20 μl by 20 μl into glass test tubes, each of which was then added with 180 μl of the above plasma. A fibrin clot was formed in several minutes. […]

fibrin clot [2] = assay: Fibrinolysis-accelerating effect: release of 125I from fibrin clots of platelet-rich plasma; design: species or system human; details: peptide 0-500 μM, FIG. 3
Description: as §1, with “mM) were poured, each in a volume” for “mM) and 1 u/ml”, “of” for “of a melanoma-derived tissue plasminogen activator (TPA), were poured”, “20 μl,” for “20 μl by 20 μl”, “test tubes. Each test tube” for “test tubes, each of which”, “was” for “was then”, “above plasma and then allowed to stand at 37° C.” for “above plasma.”
Thereafter, 800 μl of platelet-poor plasma which contained the peptide (Ia) at different levels (0-500 μM) and 1 u of Hirudin was added to each of the test tubes. The test tube was then incubated at 37° C. The contents were sampled periodically to measure ^125 I released into the supernatant.

[3] = molecular target: T1, crosslinking of α2 -PI to fibrin (Homo sapiens, UniProt P00488); assay: Inhibitory effect against the crosslinking of α2 -PI to fibrin; assay type: biochemical; details: peptide 0-50 mM solution, α2 -PI 10 μM solution; FIG. 2
T1 sequence (P00488 39-732 limits assumed): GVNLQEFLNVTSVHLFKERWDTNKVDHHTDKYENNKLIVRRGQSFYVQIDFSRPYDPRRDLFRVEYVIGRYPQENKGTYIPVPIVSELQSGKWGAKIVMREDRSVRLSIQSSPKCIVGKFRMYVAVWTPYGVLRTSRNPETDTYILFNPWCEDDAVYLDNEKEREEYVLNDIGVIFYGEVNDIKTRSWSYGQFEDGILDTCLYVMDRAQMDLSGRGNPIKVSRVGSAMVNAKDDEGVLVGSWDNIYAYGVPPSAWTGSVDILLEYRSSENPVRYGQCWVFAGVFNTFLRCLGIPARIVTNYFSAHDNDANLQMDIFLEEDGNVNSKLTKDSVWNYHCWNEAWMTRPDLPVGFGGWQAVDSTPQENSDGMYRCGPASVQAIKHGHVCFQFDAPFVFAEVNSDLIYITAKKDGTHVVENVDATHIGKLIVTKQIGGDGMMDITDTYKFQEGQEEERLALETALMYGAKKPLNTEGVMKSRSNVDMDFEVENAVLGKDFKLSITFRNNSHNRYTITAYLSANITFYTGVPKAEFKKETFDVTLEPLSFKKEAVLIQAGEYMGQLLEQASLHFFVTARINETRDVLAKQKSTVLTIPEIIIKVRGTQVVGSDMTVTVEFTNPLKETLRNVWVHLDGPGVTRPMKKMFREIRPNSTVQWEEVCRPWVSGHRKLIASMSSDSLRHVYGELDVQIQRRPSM
Description: Twenty microliters of a mixed solution of thrombin (3.3 u/ml) and calcium chloride (50 mM) was added to a mixed solution consisting of 20 μl of fibrinogen (30 mg/ml, 88 μM, containing 10 u/ml of the blood coagulation factor XIII), 20 μl of α2 -PI (0.67 mg/ml, 10 μM), 20 μl of a ^125 I-labeled peptide (0-50 mM) and 120 μl of a Tris buffer. The amount of the peptide bonded to the resulting fibrin clot was then determined in the same manner as in Experiment 1.
On the other hand, the amount of α2 -PI coupled with a fibrin clot was also determined using ^125 I-labeled α2 -PI and an unlabeled peptide.

[4] = molecular target: T2, activated blood coagulation factor XIII (Homo sapiens, UniProt P00488); assay: Crosslinking capacity of the peptide (Ia) to fibrin (125I-labeled peptide, fibrin clot radioactivity); assay type: biochemical
T2 sequence (P00488 39-732 limits assumed): T1 sequence (P00488 39-732 limits assumed)
Description: To a mixed solution of 20 μl of the peptide (Ia) labeled with a radioactive isotope ^125 I, 20 μl of fibrinogen (30 mg/ml, 88 μM, containing 2 or 10 μ/ml of the blood coagulation factor XIII) and 140 μl of a Tris buffer, was added 20 μl of a mixed solution of thrombin (3.3 u/ml) and calcium chloride (50 mM). The resulting mixture was then incubated at 37° C.
The clotting sample was frozen instantaneously at each time with dry ice/acetone to terminate the reaction and then lyophilized. The resulting fibrin film was washed three times, each for 5 minutes, with 200 μl of 50 mM EDTA containing 1% of BSA (brovine serum albmin). The thus washed fibrin film was measured in its radioactivity to determine the amount of the peptide coupled with the fibrin [see "Biochim, Biophys, Acta", 661, 280-286, (1981)].

inhibition of the crosslinking of α2 -PI to the fibrin [3]: inhibits competitively
amount of the peptide coupled with the fibrin at equilibrium ([4]; 125I-labeled peptide, fibrinogen containing factor XIII, thrombin, calcium chloride, 37° C., FIG. 1): about 40%
crosslinking velocity to fibrin ([4]; compared with α2 -PI, FIG. 1): substantially the same as that of α2 -PI
glutamine substrate for the activated blood coagulation factor XIII ([4]; conclusion from Experiment 1): good glutamine substrate
Substance: L-Asn-L-Gln-L-Glu-L-Gln-L-Val-L-Ser-L-Pro-L-Leu-L-Thr-L-Gly-L-Leu-L-Lys-NH [peptide (Ia)]
fibrinolysis-accelerating effect in combination with a plasminogen activator (fibrin clot [1]): synergistically enhanced fibrinolysis-accelerating effect
fibrinolysis-accelerating effect (dissolution of fibrin clot) (fibrin clot [2]; human platelet-rich plasma clot, 37° C., compared with absence of peptide): has a fibrinolysis-accelerating effect
dependence of the fibrinolysis-accelerating effect on the amount added (fibrin clot [2]): proportional to the amounts of the peptide (Ia) added

Reference: patent US4487718A, “Peptides” (Kowa Company, Ltd., priority 1983, dated 1984)
